From the NIST ThermoML archive (doi:10.1016/j.jct.2011.09.027)

Settings: Liquid; for viscosity: Concentric cylinders viscometry; for mass density: Vibrating tube method

CCOS(=O)(=O)[O-].CCn1cc[n+](C)c1 [1-ethyl-3-methylimidazolium ethyl sulfate]
Settings	mass density [kg/m3]	viscosity [mPa·s]
278.15 K, 101.33 kPa	–	309.1
283.12 K, 19658 kPa	1255.37	–
283.13 K, 29946 kPa	1259.21	–
283.14 K, 98469 kPa	1282.72	–
283.15 K, 101.33 kPa	1247.88	225.2
283.15 K, 40036 kPa	1262.89	–
283.15 K, 49963 kPa	1266.44	–
283.15 K, 59714 kPa	1269.86	–
283.15 K, 69986 kPa	1273.38	–
283.15 K, 79625 kPa	1276.61	–
283.15 K, 89964 kPa	1280	–
283.15 K, 109866 kPa	1286.29	–
283.15 K, 120746 kPa	1289.61	–
283.15 K, 129872 kPa	1292.32	–
283.15 K, 139485 kPa	1295.11	–
283.16 K, 1391 kPa	1248.37	–
283.18 K, 9875 kPa	1251.65	–
283.19 K, 5138 kPa	1249.82	–
293.13 K, 39626 kPa	1256.03	–
293.14 K, 1092 kPa	1241.38	–
293.14 K, 3910 kPa	1242.48	–
293.14 K, 9925 kPa	1244.83	–
293.14 K, 19948 kPa	1248.68	–
293.14 K, 29954 kPa	1252.45	–
293.14 K, 123824 kPa	1284.35	–
293.14 K, 129866 kPa	1286.19	–
293.14 K, 140209 kPa	1289.28	–
293.15 K, 101.33 kPa	1241.01	123.5
293.15 K, 49964 kPa	1259.78	–
293.15 K, 89997 kPa	1273.58	–
293.15 K, 99862 kPa	1276.81	–
293.15 K, 109863 kPa	1280.01	–
293.16 K, 80177 kPa	1270.3	–
293.17 K, 69997 kPa	1266.83	–
293.18 K, 60017 kPa	1263.35	–
298.13 K, 19821 kPa	1245.34	–
298.13 K, 29997 kPa	1249.26	–
298.13 K, 39886 kPa	1252.98	–
298.15 K, 49994 kPa	1256.71	–
298.15 K, 58874 kPa	1259.91	–
298.15 K, 69996 kPa	1263.83	–
298.16 K, 101.33 kPa	1237.53	97.2
298.16 K, 10471 kPa	1241.67	–
298.16 K, 79619 kPa	1267.14	–
298.16 K, 89998 kPa	1270.63	–
298.16 K, 99253 kPa	1273.66	–
298.16 K, 109867 kPa	1277.06	–
298.16 K, 120082 kPa	1280.24	–
298.16 K, 129865 kPa	1283.2	–
298.16 K, 139020 kPa	1285.9	–
298.17 K, 5192 kPa	1239.56	–
298.19 K, 981 kPa	1237.87	–
303.15 K, 101.33 kPa	–	77.1
313.1 K, 944 kPa	1227.8	–
313.14 K, 4705 kPa	1229.35	–
313.14 K, 39636 kPa	1243.24	–
313.14 K, 49994 kPa	1247.16	–
313.14 K, 60122 kPa	1250.92	–
313.15 K, 101.33 kPa	1227.47	50.9
313.15 K, 19818 kPa	1235.48	–
313.15 K, 30003 kPa	1239.51	–
313.15 K, 69996 kPa	1254.49	–
313.15 K, 109873 kPa	1268.13	–
313.15 K, 120354 kPa	1271.49	–
313.15 K, 129874 kPa	1274.47	–
313.16 K, 9378 kPa	1231.27	–
313.16 K, 79657 kPa	1257.92	–
313.16 K, 89993 kPa	1261.49	–
313.16 K, 99450 kPa	1264.69	–
313.16 K, 138377 kPa	1277.07	–
323.15 K, 101.33 kPa	–	35.1
333.12 K, 19852 kPa	1222.8	–
333.12 K, 79184 kPa	1246.16	–
333.13 K, 9972 kPa	1218.57	–
333.13 K, 89997 kPa	1250.05	–
333.13 K, 97104 kPa	1252.54	–
333.15 K, 101.33 kPa	1214.27	25.2
333.15 K, 4956 kPa	1216.39	–
333.15 K, 29992 kPa	1227.03	–
333.15 K, 69997 kPa	1242.77	–
333.15 K, 109862 kPa	1256.89	–
333.15 K, 121234 kPa	1260.63	–
333.16 K, 49995 kPa	1235.1	–
333.16 K, 60002 kPa	1238.99	–
333.16 K, 129872 kPa	1263.39	–
333.17 K, 1680 kPa	1214.95	–
333.17 K, 40144 kPa	1231.18	–
333.18 K, 139672 kPa	1266.43	–
343.15 K, 101.33 kPa	–	18.7
353.13 K, 19599 kPa	1209.45	–
353.13 K, 29993 kPa	1214.03	–
353.13 K, 39918 kPa	1218.29	–
353.13 K, 79974 kPa	1234.36	–
353.13 K, 119073 kPa	1248.32	–
353.14 K, 89917 kPa	1238.07	–
353.14 K, 99462 kPa	1241.53	–
353.14 K, 109824 kPa	1245.17	–
353.14 K, 129849 kPa	1251.87	–
353.14 K, 139892 kPa	1255.06	–
353.15 K, 101.33 kPa	1200.53	14.6
353.15 K, 49925 kPa	1222.47	–
353.15 K, 69993 kPa	1230.52	–
353.18 K, 59605 kPa	1226.41	–
353.19 K, 1193 kPa	1201.04	–
353.19 K, 4987 kPa	1202.81	–
353.19 K, 10093 kPa	1205.15	–
363.15 K, 101.33 kPa	1194.25	11.9
373.11 K, 118179 kPa	1236.88	–
373.12 K, 19814 kPa	1197.22	–
373.13 K, 10765 kPa	1192.98	–
373.13 K, 29997 kPa	1201.88	–
373.13 K, 39971 kPa	1206.31	–
373.13 K, 98959 kPa	1230.06	–
373.13 K, 109856 kPa	1233.98	–
373.13 K, 129856 kPa	1240.8	–
373.14 K, 49993 kPa	1210.64	–
373.15 K, 101.33 kPa	–	9.7
373.15 K, 59698 kPa	1214.72	–
373.15 K, 90001 kPa	1226.72	–
373.15 K, 140000 kPa	1244.08	–
373.16 K, 69987 kPa	1218.92	–
373.17 K, 1377 kPa	1188.48	–
373.17 K, 5226 kPa	1190.34	–
373.17 K, 79962 kPa	1222.87	–
393.12 K, 910 kPa	1175.14	–
393.12 K, 59389 kPa	1202.77	–
393.12 K, 69993 kPa	1207.25	–
393.12 K, 79111 kPa	1210.99	–
393.13 K, 5153 kPa	1177.31	–
393.13 K, 89994 kPa	1215.29	–
393.14 K, 99376 kPa	1218.86	–
393.15 K, 49959 kPa	1198.64	–
393.15 K, 109877 kPa	1222.71	–
393.15 K, 119972 kPa	1226.26	–
393.15 K, 129874 kPa	1229.6	–
393.15 K, 139106 kPa	1232.59	–
393.16 K, 10368 kPa	1179.94	–
393.16 K, 20408 kPa	1184.89	–
393.16 K, 29995 kPa	1189.49	–
393.16 K, 39725 kPa	1194.02	–
413.12 K, 9823 kPa	1167.05	–
413.12 K, 98120 kPa	1207.66	–
413.13 K, 19924 kPa	1172.37	–
413.13 K, 109866 kPa	1212.06	–
413.13 K, 120361 kPa	1215.8	–
413.15 K, 5311 kPa	1164.62	–
413.15 K, 29993 kPa	1177.5	–
413.15 K, 89994 kPa	1204.48	–
413.15 K, 129864 kPa	1219.02	–
413.17 K, 1563 kPa	1162.57	–
413.17 K, 39896 kPa	1182.37	–
413.17 K, 49998 kPa	1187.17	–
413.17 K, 59469 kPa	1191.52	–
413.17 K, 69996 kPa	1196.16	–
413.17 K, 139292 kPa	1222.06	–
413.18 K, 79893 kPa	1200.36	–
